Data as given in patent US20240041042A1, “1-(PYRIDYL)-5-AZINYLPYRAZOLE DERIVATIVES, AND THEIR USE FOR CONTROL OF UNDESIRED PLANT GROWTH” (Bayer Aktiengesellschaft, priority 2020, published 2024).
Read-outs that look alike come from different tables or passages of the source.

Assays:
Format in all cases: in vivo
[1] = test system: Polygonum convolvulus (POLCO); test: Pre-emergence herbicidal action against POLCO
Source text: (§1) Seeds of monocotyledonous and dicotyledonous weed plants and crop plants are placed in plastic or organic planting pots and covered with soil. The compounds of the invention, formulated in the form of wettable powders (WP) or as emulsion concentrates (EC), are then applied to the surface of the covering soil as aqueous suspension or emulsion with addition of 0.5% additive at a water application rate equivalent to 600 l/ha. After the treatment, the pots are placed in a greenhouse and kept under good growth conditions for the trial plants. After about 3 weeks, the effect of the preparations is scored visually in comparison with untreated controls as percentages. For example, 100% activity=the plants have died, 0% activity=like control plants.
(§2) Tables A1 to A13 below show the effects of selected compounds of the general formula (I) on various harmful plants and at an application rate corresponding to 320 g/ha or lower, which were obtained by the experimental procedure mentioned above. The appendices “a”, “b” and “c” give differentiation by dosage used with otherwise the same harmful plants tested.

[2] = test system: Echinochloa crus-galli (ECHCG); test: Pre-emergence herbicidal action against ECHCG
Source text: as §1, §2

Oryza sativa (ORYSA) = conditions: crop plant compatibility, effect in comparison to untreated controls
Method: (§3) Seeds of monocotyledonous and dicotyledonous weeds and crop plants are placed in sandy loam in plastic or organic planting pots, covered with soil and cultivated in a greenhouse under controlled growth conditions. 2 to 3 weeks after sowing, the test plants are treated at the one-leaf stage. The compounds of the invention, formulated in the form of wettable powders (WP) or as emulsion concentrates (EC), are then sprayed onto the green parts of the plants as aqueous suspension or emulsion with addition of 0.5% additive at a water application rate of 600 l/ha (converted). After the test plants have been kept in the greenhouse under optimum growth conditions for about 3 weeks, the activity of the preparations is rated visually in comparison to untreated controls. For example, 100% activity=the plants have died, 0% activity=like control plants.
The observed effects on selected crop plants are reported here in comparison to the untreated controls (values in %). The appendices “a”, “b” and “c” give differentiation by dosage used with otherwise the same crop plants tested.

[3] = test system: Matricaria inodora (MATIN); test: Pre-emergence herbicidal action against MATIN
Source text: as §1, §2

[4] = test system: Pharbitis purpurea (PHBPU); test: Pre-emergence herbicidal action against PHBPU
Source text: as §1, §2

Avena fatua (AVEFA) [5] = test: Pre-emergence herbicidal action against AVEFA; conditions: 320 g/ha, visual scoring after about 3 weeks vs untreated controls
Source text: as §1, §2

Setaria viridis (SETVI) [6] = test: Post-emergence herbicidal action against SETVI
Method: as §3
(§4) Tables B1 to B13 below show the effects of selected compounds of the general formula (I) according to Table 1 on various harmful plants and at an application rate corresponding to 320 g/ha or lower, which were obtained by the experimental procedure mentioned above. The appendices “a”, “b” and “c” give differentiation by dosage used with otherwise the same harmful plants tested.

[7] = test system: Amaranthus retroflexus (AMARE); test: Post-emergence herbicidal action against AMARE
Method: as §3, §4

[8] = test system: Polygonum convolvulus (POLCO); test: Post-emergence herbicidal action against POLCO
Method: as §3, §4

Setaria viridis (SETVI) [9] = test: Pre-emergence herbicidal action against SETVI
Source text: as §1, §2

Viola tricolor (VIOTR) [10] = test: Post-emergence herbicidal action against VIOTR
Method: as §3, §4

[11] = test system: Verconica persica (VERPE); test: Post-emergence herbicidal action against VERPE
Method: as §3, §4

[12] = test system: Verconica persica (VERPE); test: Pre-emergence herbicidal action against VERPE
Source text: as §1, §2

Viola tricolor (VIOTR) [13] = test: Pre-emergence herbicidal action against VIOTR
Source text: as §1, §2

[14] = test system: Alopecurus myosuroides (ALOMY); test: Pre-emergence herbicidal action against ALOMY; conditions: scored visually after about 3 weeks, 100% = plants have died
Source text: as §1, §2

[15] = test system: Amaranthus retroflexus (AMARE); test: Pre-emergence herbicidal action against AMARE; conditions: visual scoring after about 3 weeks vs untreated controls
Source text: as §1, §2

Lolium rigidum (LOLRI) [16] = test: Post-emergence herbicidal action against LOLRI
Method: as §3, §4

Lolium rigidum (LOLRI) [17] = test: Pre-emergence herbicidal action against LOLRI
Source text: as §1, §2

[18] = test system: Abutilon theophrasti (ABUTH); test: Post-emergence herbicidal action against ABUTH; conditions: 320 g/ha, visual rating about 3 weeks after treatment vs untreated controls (100% = plants have died, 0% = like control plants)
Method: as §3, §4

[19] = test system: Alopecurus myosuroides (ALOMY); test: Post-emergence herbicidal action against ALOMY; conditions: 320 g/ha, visual rating about 3 weeks after treatment vs untreated controls (100% = plants have died, 0% = like control plants)
Method: as §3, §4

[20] = test system: Echinochloa crus-galli (ECHCG); test: Post-emergence herbicidal action against ECHCG
Method: as §3, §4

Avena fatua (AVEFA) [21] = test: Post-emergence herbicidal action against AVEFA; conditions: visual rating about 3 weeks after treatment
Method: as §3, §4

[22] = test system: Pharbitis purpurea (PHBPU); test: Post-emergence herbicidal action against PHBPU
Method: as §3, §4

[23] = test system: Matricaria inodora (MATIN); test: Post-emergence herbicidal action against MATIN
Method: as §3, §4

[24] = 320 g/ha, visual rating about 3 weeks after treatment

Row | Structure (SMILES) | Pre-emergence action against POLCO in % ([1]; dosage 80 g/ha) [%] | Pre-emergence action against POLCO in % ([1]; dosage 320 g/ha) [%] | Pre-emergence action against ECHCG in % ([2]; dosage 80 g/ha) [%] | Pre-emergence action against ECHCG in % ([2]; dosage 320 g/ha) [%] | Post-emergence action against ORYSA in % (Oryza sativa (ORYSA); 80 g/ha) [%] | Pre-emergence action against MATIN in % ([3]; dosage 320 g/ha) [%] | Pre-emergence action against PHBPU in % ([4]; dosage 320 g/ha) [%] | Post-emergence action against SETVI in % (Setaria viridis (SETVI) [6]; dosage 80 g/ha) [%] | Post-emergence action against SETVI in % (Setaria viridis (SETVI) [6]; dosage 320 g/ha) [%] | Post-emergence action against AMARE in % [7, 24] [%] | Pre-emergence action against SETVI in % (Setaria viridis (SETVI) [9]; dosage 80 g/ha) [%] | Pre-emergence action against SETVI in % (Setaria viridis (SETVI) [9]; dosage 320 g/ha) [%] | Post-emergence action against VERPE in % ([11]; 320 g/ha, VERPE) [%] | Pre-emergence action against VERPE in % ([12]; dosage 320 g/ha) [%] | Pre-emergence action against VIOTR in % (Viola tricolor (VIOTR) [13]; 320 g/ha, Viola tricolor) [%] | Pre-emergence action against VIOTR in % (Viola tricolor (VIOTR) [13]; dosage 80 g/ha) [%] | Pre-emergence action against ALOMY ([14]; 80 g/ha) [%] | Pre-emergence action against ALOMY ([14]; 320 g/ha) [%] | Pre-emergence action against AMARE in % ([15]; 80 g/ha) [%] | Pre-emergence action against AMARE in % ([15]; 320 g/ha) [%] | further results
1 | CC(NC(=O)[C@@H](C)Oc1nn(-c2ccccn2)c(-c2ccc(F)nc2)c1Cl)C(=O)O (some centres unmarked) [Example I-350] | 90 | 90 | 100 | 100 | 0 | 90 | 80 | 80 | 90 | 90 | 100 | 100 | 90 | 100 | 100 | 100 | 100 | 100 | 100 | 100 | Post-emergence action against ORYSA in % (Oryza sativa (ORYSA); 320 g/ha): 10%; Pre-emergence action against AVEFA in % (Avena fatua (AVEFA) [5]): 100%; Post-emergence action against AMARE in % ([7]; 80 g/ha, visual rating about 3 weeks after treatment vs untreated controls (100% = plants have died, 0% = like control plants)): 90%; Post-emergence action against POLCO in % ([8]; dosage 80 g/ha): 80%; Post-emergence action against POLCO in % ([8]; dosage 320 g/ha): 90%; Post-emergence action against VIOTR in % (Viola tricolor (VIOTR) [10]; 80 g/ha): 90%; Post-emergence action against VIOTR in % (Viola tricolor (VIOTR) [10]; 320 g/ha): 90%; Pre-emergence action against VERPE in % ([12]; dosage 80 g/ha): 90%; Post-emergence action against LOLRI in % (Lolium rigidum (LOLRI) [16]; dosage 80 g/ha): 80%; Post-emergence action against LOLRI in % (Lolium rigidum (LOLRI) [16]; dosage 320 g/ha): 90%; Pre-emergence action against LOLRI in % (Lolium rigidum (LOLRI) [17]; dosage 80 g/ha): 100%; Pre-emergence action against LOLRI in % (Lolium rigidum (LOLRI) [17]; dosage 320 g/ha): 100%; Post-emergence action against ABUTH in % [18]: 90%; Post-emergence action against ALOMY in % [19]: 90%; Post-emergence action against ECHCG in % ([20]; dosage 80 g/ha): 80%; Post-emergence action against ECHCG in % ([20]; dosage 320 g/ha): 90%; Post-emergence action against AVEFA in % (Avena fatua (AVEFA) [21]; 80 g/ha): 90%; Post-emergence action against AVEFA in % (Avena fatua (AVEFA) [21]; 320 g/ha): 90%
2 | COC(=O)COc1nn(-c2nc(F)ccc2F)c(-c2cncc(F)c2)c1Br [Example I-210] | 90 | 100 | 90 | 100 | 10 | 90 | 90 | 80 | 80 | 80 | 90 | 100 | 90 | 100 | 100 | 90 | 80 | 90 | 80 | 100 | Post-emergence action against PHBPU in % ([22]; dosage 80 g/ha): 90%; Post-emergence action against PHBPU in % ([22]; dosage 320 g/ha): 100%; Pre-emergence action against MATIN in % ([3]; dosage 80 g/ha): 90%; Pre-emergence action against PHBPU in % ([4]; dosage 80 g/ha): 90%; Post-emergence action against MATIN in % ([23]; dosage 80 g/ha): 80%; Post-emergence action against MATIN in % ([23]; dosage 320 g/ha): 80%; Post-emergence action against VERPE in % ([11]; dosage 80 g/ha): 90%; Post-emergence action against LOLRI in % (Lolium rigidum (LOLRI) [16]; dosage 320 g/ha): 80%; Pre-emergence action against LOLRI in % (Lolium rigidum (LOLRI) [17]; dosage 320 g/ha): 80%; Post-emergence action against ABUTH in % [18]: 80%; Post-emergence action against ALOMY in % [19]: 90%; Post-emergence action against ECHCG in % ([20]; dosage 80 g/ha): 80%; Post-emergence action against ECHCG in % ([20]; dosage 320 g/ha): 80%
